Here are results for 1 compound from paper PMC8069501, “Identification of Vinyl Sulfone Derivatives as EGFR Tyrosine Kinase Inhibitor: In Vitro and In Silico Studies” (Molecules, 2021).

For orientation: IC50 means the concentration that gives 50% inhibition.

Holding throughout (assay type): biochemical
In one test the target is T1, JAK3 (Homo sapiens, UniProt P52333).
T1 sequence (P52333 1-1124): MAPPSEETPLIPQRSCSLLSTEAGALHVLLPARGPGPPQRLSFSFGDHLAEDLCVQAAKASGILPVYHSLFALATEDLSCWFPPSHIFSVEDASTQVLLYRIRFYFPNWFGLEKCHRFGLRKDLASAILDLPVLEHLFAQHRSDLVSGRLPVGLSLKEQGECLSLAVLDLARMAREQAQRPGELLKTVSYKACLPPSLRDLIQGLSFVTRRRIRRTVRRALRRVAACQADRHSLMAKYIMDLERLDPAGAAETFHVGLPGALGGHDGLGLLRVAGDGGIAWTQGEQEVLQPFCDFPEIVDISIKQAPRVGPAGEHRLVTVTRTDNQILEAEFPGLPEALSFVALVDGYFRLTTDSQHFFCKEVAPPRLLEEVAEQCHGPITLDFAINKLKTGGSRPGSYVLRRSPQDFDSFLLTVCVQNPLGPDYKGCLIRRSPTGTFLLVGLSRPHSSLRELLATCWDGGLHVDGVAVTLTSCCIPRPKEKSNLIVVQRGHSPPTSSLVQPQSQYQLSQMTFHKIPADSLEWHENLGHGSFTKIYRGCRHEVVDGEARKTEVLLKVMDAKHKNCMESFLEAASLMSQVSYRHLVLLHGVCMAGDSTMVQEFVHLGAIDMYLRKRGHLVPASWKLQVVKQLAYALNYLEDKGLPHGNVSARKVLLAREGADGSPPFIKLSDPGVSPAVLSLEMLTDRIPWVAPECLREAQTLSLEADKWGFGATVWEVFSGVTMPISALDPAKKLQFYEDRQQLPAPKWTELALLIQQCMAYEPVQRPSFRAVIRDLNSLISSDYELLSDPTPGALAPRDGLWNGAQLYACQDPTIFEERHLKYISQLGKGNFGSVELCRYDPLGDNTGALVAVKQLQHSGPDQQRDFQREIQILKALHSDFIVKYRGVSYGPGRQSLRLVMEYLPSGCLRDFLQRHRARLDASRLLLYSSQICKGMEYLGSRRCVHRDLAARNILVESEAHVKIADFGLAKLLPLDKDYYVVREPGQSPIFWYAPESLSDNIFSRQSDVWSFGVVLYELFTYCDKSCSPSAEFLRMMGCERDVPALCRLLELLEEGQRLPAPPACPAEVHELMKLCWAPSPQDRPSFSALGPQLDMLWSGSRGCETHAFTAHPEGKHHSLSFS
The test can be described thus: kinase inhibition assay (ADP-Glo). (In general: ADP-Glo turns the ADP formed in a reaction into a luminescent signal.)

Test [1] has as its target T2, EGFR-TK (epidermal growth factor receptor tyrosine kinase) (Homo sapiens, UniProt P00533).
T2 construct: tyrosine kinase (TK) domain
The test is described as follows: ADP-Glo kinase assay.

Another test addresses T3, HER2 (Homo sapiens, UniProt P04626).
T3 construct: gene ERBB2
The test can be described thus: kinase inhibition assay (ADP-Glo).

T2 sequence (P00533 712-979 limits assumed): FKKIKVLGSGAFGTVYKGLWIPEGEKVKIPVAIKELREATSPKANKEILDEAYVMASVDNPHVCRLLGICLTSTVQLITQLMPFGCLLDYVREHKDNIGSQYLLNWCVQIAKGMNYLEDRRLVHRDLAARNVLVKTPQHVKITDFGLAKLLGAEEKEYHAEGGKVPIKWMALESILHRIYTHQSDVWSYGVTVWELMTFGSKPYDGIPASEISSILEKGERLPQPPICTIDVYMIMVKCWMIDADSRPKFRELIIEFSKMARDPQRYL
T3 sequence (P04626 23-1255): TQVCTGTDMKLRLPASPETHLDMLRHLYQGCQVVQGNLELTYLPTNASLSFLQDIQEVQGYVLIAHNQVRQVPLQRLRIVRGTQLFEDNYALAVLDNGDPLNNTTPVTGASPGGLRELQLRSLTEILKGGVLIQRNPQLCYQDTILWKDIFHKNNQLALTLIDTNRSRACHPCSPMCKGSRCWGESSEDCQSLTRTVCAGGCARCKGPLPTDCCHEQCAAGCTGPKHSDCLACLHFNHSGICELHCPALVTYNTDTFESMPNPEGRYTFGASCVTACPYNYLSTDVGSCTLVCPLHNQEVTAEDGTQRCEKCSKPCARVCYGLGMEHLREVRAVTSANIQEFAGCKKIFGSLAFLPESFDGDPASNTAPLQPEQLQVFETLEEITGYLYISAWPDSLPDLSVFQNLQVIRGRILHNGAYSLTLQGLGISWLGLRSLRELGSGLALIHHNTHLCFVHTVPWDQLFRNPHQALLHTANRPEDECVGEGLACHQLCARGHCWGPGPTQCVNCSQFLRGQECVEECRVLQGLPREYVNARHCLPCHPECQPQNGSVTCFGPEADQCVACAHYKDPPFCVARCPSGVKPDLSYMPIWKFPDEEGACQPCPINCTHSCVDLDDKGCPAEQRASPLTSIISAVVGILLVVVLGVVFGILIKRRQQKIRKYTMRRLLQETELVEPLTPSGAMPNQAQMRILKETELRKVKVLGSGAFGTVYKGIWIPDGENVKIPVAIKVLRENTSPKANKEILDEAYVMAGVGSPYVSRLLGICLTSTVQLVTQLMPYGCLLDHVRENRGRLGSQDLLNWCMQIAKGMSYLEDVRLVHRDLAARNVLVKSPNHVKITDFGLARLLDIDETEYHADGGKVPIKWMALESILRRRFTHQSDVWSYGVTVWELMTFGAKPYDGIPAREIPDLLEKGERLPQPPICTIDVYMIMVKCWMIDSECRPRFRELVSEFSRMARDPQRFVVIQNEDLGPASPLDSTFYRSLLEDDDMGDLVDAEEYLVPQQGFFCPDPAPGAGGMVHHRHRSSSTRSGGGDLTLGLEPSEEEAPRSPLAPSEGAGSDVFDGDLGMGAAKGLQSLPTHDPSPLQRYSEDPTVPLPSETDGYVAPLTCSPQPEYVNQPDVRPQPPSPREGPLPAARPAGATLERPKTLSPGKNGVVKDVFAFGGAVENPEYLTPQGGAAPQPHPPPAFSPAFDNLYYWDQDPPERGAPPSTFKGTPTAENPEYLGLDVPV

On to `COc1cc(/C=C/S(=O)(=O)c2ccccc2)cc(OC)c1OC` [VF16], for which the IC50 at JAK3 was determined as 0.158 ± 0.00475 µM; in test [1], 0.00785 ± 0.00088 µM; against HER2, 0.312 ± 0.00028 µM.
